# Results as given in US20050208511A1, “DMBT1 as a clinical marker and uses thereof” (priority 2003, published 2005).
# Tested on: endometrium
# Test: average endometrial thickness in treated monkeys
# Type: in vivo, cynomolgus monkeys (Macaca fascicularis)
# Details: Intact/leuprolide (leuprolide for 40 days)
smiles,measurement,value
CCNC(=O)[C@@H]1CCCN1C(=O)[C@H](CCCNC(=N)N)NC(=O)[C@H](CC(C)C)NC(=O)[C@@H](CC(C)C)NC(=O)[C@H](Cc1ccc(O)cc1)NC(=O)[C@H](CO)NC(=O)[C@H](Cc1c[nH]c2ccccc12)NC(=O)[C@H](Cc1c[nH]cn1)NC(=O)[C@@H]1CCC(=O)N1 [leuprolide],Endometrial Thickness (mm),1.25 mm
